Data on six compounds can be found in ChEMBL document CHEMBL1743341, “Cytochrome p450 enzymes mechanism based inhibitors: common sub-structures and reactivity” (Curr Drug Metab, 2005).

Data set [1] has as its target T1, CYP3A5 (Homo sapiens, UniProt P20815). As to the kind of experiment: (§1) Mechanism based inhibition of human cytochrome P450 3A5 measured by testosterone hydroxylation. The conditions noted are these: human, probe testosterone (hydroxylation). Type of data set: ADME.
For data set [2], the target named is T2, Cytochrome P450 3A5 (Homo sapiens, UniProt P20815). The description is as §1. The format is ADME.
T2 sequence (P20815 whole entry): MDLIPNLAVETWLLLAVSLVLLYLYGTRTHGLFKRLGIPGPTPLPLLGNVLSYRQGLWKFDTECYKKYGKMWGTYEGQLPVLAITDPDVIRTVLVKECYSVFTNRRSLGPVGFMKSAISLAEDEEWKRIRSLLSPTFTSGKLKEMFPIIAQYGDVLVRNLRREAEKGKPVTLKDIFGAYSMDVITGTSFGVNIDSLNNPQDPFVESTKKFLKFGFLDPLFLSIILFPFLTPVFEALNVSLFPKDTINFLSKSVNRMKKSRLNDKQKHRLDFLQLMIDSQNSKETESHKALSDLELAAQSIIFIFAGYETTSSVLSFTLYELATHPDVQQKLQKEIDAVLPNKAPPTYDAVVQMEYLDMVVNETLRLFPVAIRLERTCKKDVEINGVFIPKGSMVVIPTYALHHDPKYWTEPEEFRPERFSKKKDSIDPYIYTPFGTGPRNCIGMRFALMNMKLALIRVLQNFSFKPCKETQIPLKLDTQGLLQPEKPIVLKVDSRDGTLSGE
Data set [3] addresses T3, Cytochrome P450 3A4 (Homo sapiens, UniProt P08684). As to the kind of experiment: (§2) Mechanism based inhibition of human cytochrome P450 3A4 measured by testosterone hydroxylation. The format is ADME.
For data set [4], the target named is T4, CYP3A4 (Homo sapiens, UniProt P08684). The data set is described as §2. The format is ADME. As to conditions: human, probe testosterone (hydroxylation).
T4 sequence (P08684 whole entry): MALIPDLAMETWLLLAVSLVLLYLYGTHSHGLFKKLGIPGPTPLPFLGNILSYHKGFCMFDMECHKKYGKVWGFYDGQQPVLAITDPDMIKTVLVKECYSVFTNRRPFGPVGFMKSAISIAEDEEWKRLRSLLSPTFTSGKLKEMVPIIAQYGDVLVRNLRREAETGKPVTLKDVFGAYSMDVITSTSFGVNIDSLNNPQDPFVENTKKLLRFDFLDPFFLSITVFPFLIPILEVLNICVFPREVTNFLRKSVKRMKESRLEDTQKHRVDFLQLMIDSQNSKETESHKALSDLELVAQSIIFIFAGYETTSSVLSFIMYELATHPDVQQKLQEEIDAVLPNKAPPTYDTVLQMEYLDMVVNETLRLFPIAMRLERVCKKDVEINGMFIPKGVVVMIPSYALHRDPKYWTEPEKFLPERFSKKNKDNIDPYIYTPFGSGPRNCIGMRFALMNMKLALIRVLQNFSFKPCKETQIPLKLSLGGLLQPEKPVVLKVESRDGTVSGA
Data set [5] concerns the target T3, Cytochrome P450 3A4. As to the kind of experiment: Mechanism based inhibition of human cytochrome P450 3A4 measured by transformation of triazolam into its alpha-hydroxy and 4-hydroxy metabolites. The format is ADME.
In data set [6] the target is T5, Cytochrome P450 2C9 (Homo sapiens, UniProt P11712). As to the kind of experiment: (§3) Mechanism based inhibition of human cytochrome P450 2C9. The format is ADME.
T5 sequence (P11712 whole entry): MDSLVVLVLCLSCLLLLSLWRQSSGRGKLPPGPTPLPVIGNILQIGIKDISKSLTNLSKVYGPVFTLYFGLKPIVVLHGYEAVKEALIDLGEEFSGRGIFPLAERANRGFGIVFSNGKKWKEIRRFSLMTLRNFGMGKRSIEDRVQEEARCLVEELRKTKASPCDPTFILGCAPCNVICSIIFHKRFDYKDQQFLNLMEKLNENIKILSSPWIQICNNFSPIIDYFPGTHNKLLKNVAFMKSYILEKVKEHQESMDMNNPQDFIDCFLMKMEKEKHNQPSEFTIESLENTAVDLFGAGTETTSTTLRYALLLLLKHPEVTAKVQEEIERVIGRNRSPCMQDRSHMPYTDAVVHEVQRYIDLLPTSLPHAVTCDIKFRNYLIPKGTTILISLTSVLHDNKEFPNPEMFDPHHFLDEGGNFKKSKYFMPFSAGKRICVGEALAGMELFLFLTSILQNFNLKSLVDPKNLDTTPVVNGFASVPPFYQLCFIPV
The target in data set [7] is T6, Cytochrome P450 2B6 (Homo sapiens, UniProt P20813).
T6 sequence (P20813 whole entry): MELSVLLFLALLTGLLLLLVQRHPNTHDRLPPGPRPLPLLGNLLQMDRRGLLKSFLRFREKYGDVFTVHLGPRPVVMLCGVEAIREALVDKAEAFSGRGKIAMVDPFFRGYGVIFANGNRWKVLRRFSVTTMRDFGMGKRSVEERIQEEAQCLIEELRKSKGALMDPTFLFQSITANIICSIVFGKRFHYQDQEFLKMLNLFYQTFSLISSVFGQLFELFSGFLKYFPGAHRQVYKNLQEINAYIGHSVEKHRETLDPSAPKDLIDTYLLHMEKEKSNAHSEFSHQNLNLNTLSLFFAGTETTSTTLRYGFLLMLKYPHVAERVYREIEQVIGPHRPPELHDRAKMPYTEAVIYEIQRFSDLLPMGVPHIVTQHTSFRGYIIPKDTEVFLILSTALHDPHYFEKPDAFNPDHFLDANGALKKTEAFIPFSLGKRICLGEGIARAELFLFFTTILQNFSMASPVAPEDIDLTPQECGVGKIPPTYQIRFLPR
As to the kind of experiment: Mechanism based inhibition of human cytochrome P450 2B6, partition ratio. Type of data set: ADME.

In data set [8] the target is T6, Cytochrome P450 2B6. As to the kind of experiment: (§4) Mechanism based inhibition of human cytochrome P450 2B6. Type of data set: ADME.
The next data set has as its target T7, CYP2B6 (Homo sapiens, UniProt P20813).
T7 sequence (P20813 whole entry): T6 sequence (P20813 whole entry)
The description is as §4. Type of data set: ADME. The conditions noted are these: human.

The target in a further data set is T8, CYP2B1 (Rattus norvegicus, UniProt P00176).
T8 sequence (P00176 whole entry): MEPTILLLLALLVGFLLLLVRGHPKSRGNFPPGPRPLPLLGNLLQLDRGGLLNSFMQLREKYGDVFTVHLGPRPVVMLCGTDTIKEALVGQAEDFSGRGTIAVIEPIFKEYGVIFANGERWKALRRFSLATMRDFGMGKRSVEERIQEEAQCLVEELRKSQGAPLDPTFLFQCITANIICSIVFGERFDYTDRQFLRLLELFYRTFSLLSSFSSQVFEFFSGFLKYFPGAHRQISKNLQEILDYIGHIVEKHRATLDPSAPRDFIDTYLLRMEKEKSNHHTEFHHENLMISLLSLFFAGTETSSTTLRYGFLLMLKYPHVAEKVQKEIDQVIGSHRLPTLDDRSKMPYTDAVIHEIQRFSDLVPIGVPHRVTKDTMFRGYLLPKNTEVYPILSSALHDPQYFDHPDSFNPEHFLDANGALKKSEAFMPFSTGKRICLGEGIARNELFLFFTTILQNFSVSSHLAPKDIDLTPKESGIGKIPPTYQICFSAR
As to the kind of experiment: (§5) Mechanism based inhibition of rat cytochrome P450 2B1. Type of data set: ADME. As to conditions: rat.

Data set [9] deals with T9, Cytochrome P450 2B1 (Rattus norvegicus, UniProt P00176).
T9 sequence (P00176 whole entry): T8 sequence (P00176 whole entry)
Described as §5. The format is ADME.

Data set [10] concerns the target T9, Cytochrome P450 2B1. As to the kind of experiment: Mechanism based inhibition of rat cytochrome P450 2B1, partition ratio. Type of data set: ADME.
The next data set concerns the target CYP2C9 (Homo sapiens, UniProt P11712). The data set is described as §3. The format is ADME. As to conditions: human.
For data set [11], the target named is T5, Cytochrome P450 2C9. As to the kind of experiment: Mechanism based inhibition of human cytochrome P450 2C9, partition ratio. The format is ADME.
Data set [12] addresses T3, Cytochrome P450 3A4. As to the kind of experiment: (§6) Mechanism based inhibition of human cytochrome P450 3A4 measured by testosterone 6-beta hydroxylation using human liver microsomes. Type of data set: ADME, Microsome. On the technique in general: Microsomes from liver hold many membrane-bound enzymes, among them those of drug oxidation.
In data set [13] the target is T4, CYP3A4. The data set is described as §6. As to conditions: human, liver microsomes, probe testosterone (6-beta hydroxylation). Type of data set: ADME, Microsome.
The target of data set [14] is T1, CYP3A5. As to the kind of experiment: (§7) Mechanism based inhibition of human cytochrome P450 3A5 using expressed CYP3A5 cDNA. The format is ADME. The conditions noted are these: human, cDNA-expressed CYP3A5.
Data set [15] has as its target T2, Cytochrome P450 3A5. The data set is described as §7. The format is ADME.
The target of data set [16] is T3, Cytochrome P450 3A4. As to the kind of experiment: (§8) Mechanism based inhibition of human cytochrome P450 3A4 measured by testosterone 6-beta hydroxylation using a recombinant system. Type of data set: ADME.
Data set [17] has as its target T4, CYP3A4. The data set is described as §8. The format is ADME. The conditions noted are these: human, recombinant CYP3A4 system, probe testosterone (6-beta hydroxylation).
Data set [18] deals with T3, Cytochrome P450 3A4. As to the kind of experiment: (§9) Mechanism based inhibition of human cytochrome P450 3A4 using expressed CYP3A4 cDNA. The format is ADME.
Data set [19] addresses T4, CYP3A4. The description is as §9. Type of data set: ADME. As to conditions: human, cDNA-expressed CYP3A4.
Data set [20] concerns the target T10, Cytochrome P450 2D6 (Homo sapiens, UniProt P10635). As to the kind of experiment: Mechanism based inhibition of human cytochrome P450 2D6, partition ratio. Type of data set: ADME.
The target of the next data set is CYP2D6 (Homo sapiens, UniProt P10635). As to the kind of experiment: (§10) Mechanism based inhibition of human cytochrome P450 2D6 measured by dextromethorphan O-demethylation. Type of data set: ADME. The conditions noted are these: human, probe dextromethorphan.
CYP2D6, sequence (P10635 whole entry): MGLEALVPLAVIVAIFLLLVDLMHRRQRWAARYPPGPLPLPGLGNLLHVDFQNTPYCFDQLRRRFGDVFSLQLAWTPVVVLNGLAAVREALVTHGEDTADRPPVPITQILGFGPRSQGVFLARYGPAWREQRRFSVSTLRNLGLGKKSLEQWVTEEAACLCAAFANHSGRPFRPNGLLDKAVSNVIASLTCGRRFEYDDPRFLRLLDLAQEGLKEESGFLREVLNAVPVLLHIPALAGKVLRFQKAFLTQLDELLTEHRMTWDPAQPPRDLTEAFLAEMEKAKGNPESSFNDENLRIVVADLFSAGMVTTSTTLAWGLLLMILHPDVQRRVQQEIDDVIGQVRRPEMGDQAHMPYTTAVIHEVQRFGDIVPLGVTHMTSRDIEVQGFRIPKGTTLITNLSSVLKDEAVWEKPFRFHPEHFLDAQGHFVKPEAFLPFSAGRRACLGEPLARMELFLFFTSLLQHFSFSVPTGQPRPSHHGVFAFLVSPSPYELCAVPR
Data set [21] has as its target T10, Cytochrome P450 2D6. Described as §10. The format is ADME.
Data set [22] concerns the target T11, Cytochrome P450 2A6 (Homo sapiens, UniProt P11509).
T11 sequence (P11509 whole entry): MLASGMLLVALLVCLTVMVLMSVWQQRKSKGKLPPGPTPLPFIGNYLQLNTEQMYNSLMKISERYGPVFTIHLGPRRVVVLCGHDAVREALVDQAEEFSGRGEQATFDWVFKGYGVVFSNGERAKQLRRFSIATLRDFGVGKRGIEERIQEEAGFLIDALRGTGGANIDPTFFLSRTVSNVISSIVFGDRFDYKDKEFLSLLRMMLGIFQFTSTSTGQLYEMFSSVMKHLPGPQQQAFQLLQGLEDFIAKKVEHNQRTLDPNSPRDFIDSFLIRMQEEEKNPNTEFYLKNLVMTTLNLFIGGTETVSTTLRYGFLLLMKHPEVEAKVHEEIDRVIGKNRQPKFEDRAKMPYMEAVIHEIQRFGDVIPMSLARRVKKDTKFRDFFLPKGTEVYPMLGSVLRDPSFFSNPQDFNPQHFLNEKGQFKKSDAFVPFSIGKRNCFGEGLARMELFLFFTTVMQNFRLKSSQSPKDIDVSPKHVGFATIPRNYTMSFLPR
As to the kind of experiment: Mechanism based inhibition of human cytochrome P450 2A6, partition ratio. Type of data set: ADME.

The target in data set [23] is T11, Cytochrome P450 2A6. As to the kind of experiment: (§11) Mechanism based inhibition of human cytochrome P450 2A6 measured by coumarin 7-hydroxylation using human liver microsomes. The format is ADME, Microsome.
For data set [24], the target named is T12, CYP2A6 (Homo sapiens, UniProt P11509).
T12 sequence (P11509 whole entry): T11 sequence (P11509 whole entry)
Described as §11. Type of data set: ADME, Microsome. As to conditions: human, human liver microsomes, probe coumarin.

The target in data set [25] is T11, Cytochrome P450 2A6. As to the kind of experiment: (§12) Mechanism based inhibition of human cytochrome P450 2A6 measured by coumarin 7-hxdroxylation using purified P450. Type of data set: ADME.
The target in data set [26] is T12, CYP2A6. The description is as §12. The format is ADME. As to conditions: human, purified CYP2A6, probe coumarin (7-hydroxylation).

T3 sequence (P08684 whole entry): as the sequence (P08684 whole entry) above
T10 sequence (P10635 whole entry): as the sequence (P10635 whole entry) above
T1 sequence (P20815 whole entry): as the sequence (P20815 whole entry) above
CYP2C9, sequence (P11712 whole entry): as the sequence (P11712 whole entry) above

For `CC(C)CN(C[C@@H](O)[C@H](Cc1ccccc1)NC(=O)O[C@H]1CCOC1)S(=O)(=O)c1ccc(N)cc1`, the kinact on CYP3A5 [1] was 0.00583 s⁻¹; at CYP3A4 [4], 0.0122 s⁻¹. For the same compound, the Ki at Cytochrome P450 3A5 [2] was determined as 0.2 µM; at Cytochrome P450 3A4 [3], 0.26 µM. Besides, the mechanism based inhibition result at Cytochrome P450 3A4 [5] is “Cytochrome P450 mechanistic inhibitor: PMID 10952482”.

With `CC(C)(c1ccccc1)N1CCCCC1`, the mechanism based inhibition result on Cytochrome P450 2C9 [6] was “Cytochrome P450 mechanistic inhibitor: PMID 10901701”. In addition, the Partition ratio on Cytochrome P450 2B6 [7] was 15; at Cytochrome P450 2B1 [10] it was 31. Also, the Ki is 1.2 µM on Cytochrome P450 2B6 [8] and 12 µM on Cytochrome P450 2B1 [9]. Also, the kinact on CYP2B6 was 0.00117 s⁻¹; at CYP2B1, 0.005 s⁻¹.

Consider `CC(C(=O)O)c1ccc(C(=O)c2cccs2)cc1` (racemic) [SUPROFEN], for which the kinact at CYP2C9 is 0.00152 s⁻¹. The compound also had a Ki at Cytochrome P450 2C9 [6] of 3.7 µM. For the same compound, the Partition ratio on Cytochrome P450 2C9 [11] is recorded as 101.

With `COc1ccc(CCNCCCC(C#N)(c2ccc(OC)c(OC)c2)C(C)C)cc1OC` (stereo unspecified) [NORVERAPAMIL], the Ki came to 2.11 µM on Cytochrome P450 3A4 [12], 4.53 µM at Cytochrome P450 3A5 [15], 5.89 µM on Cytochrome P450 3A4 [16] and 10.3 µM at Cytochrome P450 3A4 [18]. Moreover, the kinact on CYP3A4 [13] was 0.0035 s⁻¹; at CYP3A5 [14], 0.00117 s⁻¹; on CYP3A4 [17] it was 0.0187 s⁻¹; on CYP3A4 [19] it was 0.005 s⁻¹.

Turning to `CCc1nc(C)c(CN2CCN(c3cc(C(F)(F)F)ccn3)CC2)[nH]1`, at Cytochrome P450 2D6 [20], the Partition ratio is 99. Besides, the kinact on CYP2D6 is 0.0015 s⁻¹. The same compound showed a Ki on Cytochrome P450 2D6 [21] of 5.5 µM.

As for `Cc1coc2c1CCC(C)C2` (stereo unspecified) [MENTHOFURAN], the Partition ratio on Cytochrome P450 2A6 [22] is listed as 3.5. Further, the Ki was determined as 2.5 µM on Cytochrome P450 2A6 [23] and 0.84 µM on Cytochrome P450 2A6 [25]. In addition, the figures for the kinact on CYP2A6 [24] and at CYP2A6 [26] were 0.00367 s⁻¹ and 0.00417 s⁻¹, respectively.

A word on the kinact: it is the maximal first-order rate at which the target is inactivated.
